Measured values: paper PMC10530362, “Light-Sensitive Open Channel Block of Ionotropic Glutamate Receptors by Quaternary Ammonium Azobenzene Derivatives” (International Journal of Molecular Sciences, 2023)

How the values were obtained:
[1] = system: T1, NMDA receptors (native, hippocampal CA1 pyramidal neurons); test: whole-cell patch clamp, NMDA-evoked steady-state current; format: cell-based, Rattus norvegicus; conditions: dark (trans), -70 mV, 100 µM NMDA + 10 µM glycine, pH 7.4, 22-24 °C; voltage-dependent foot-in-the-door pore block; unit inferred, µM from context
T1 construct: gene Grin1; native heteromeric receptor in isolated rat CA1 pyramidal neurons

[2] = system: T2, calcium-permeable AMPA receptors (native, giant cholinergic interneurons of the striatum); test: whole-cell patch clamp, kainate-evoked current; format: cell-based, Rattus norvegicus; conditions: dark (trans), -70 mV, 100 µM kainate, pH 7.4, 22-24 °C; open channel pore block plus minor voltage-independent site; unit inferred, µM from context
T2 construct: gene Gria1; native GluA2(R)-lacking receptors in isolated rat striatal giant interneurons

C=CC(=O)Nc1ccc(/N=N/c2ccc(NC(=O)C[N+](CC)(CC)CC)cc2)cc1 [AAQ]
IC50 [1]: 19 ± 1.4 µM
IC50 [2]: 28.5 ± 1.1 µM

CC[N+](CC)(CC)CC(=O)Nc1ccc(N=Nc2ccc(NC(=O)C[N+](CC)(CC)CC)cc2)cc1 [QAQ]
IC50 [1]: 18.6 ± 1 µM
IC50 [2]: 17 ± 2 µM
